Common to all, as to test: growth of human tumour cells (NCI), 48 h
For experiment [1], the system named is KM12 colon.
In experiment [2] the test system is UACC-62 melanoma.
Experiment [3] relates to NCI-H226 lung.
For experiment [4], the system named is M14 melanoma.
Experiment [5] deals with SK-MEL-2 melanoma.
Experiment [6] has as its system NCI-H460 lung.
Experiment [7] has as its system CCRF-CEM leukemia.
The subject of experiment [8] is NCI-H522 lung.
Experiment [9] concerns NCI/ADR-RES ovarian.
For experiment [10], the system named is OVCAR-4 ovarian.

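Compound exposure: 48 hours, 5 concentrations, 96-well plates. At the TGI there is no net growth.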 Some results are limits rather than exact numbers.

For 19 compounds, TGI results are on record in PubChem BioAssay (NCI).

For the compound `Cn1c(=O)c2[nH]c(CCC(=O)O)nc2n(C)c1=O`, the TGI in [1], in [2], in experiment [3], in experiment [4], in [5] and in experiment [6] was greater than 100 µM throughout. The TGI in experiment [7], in experiment [8], in experiment [9] and in experiment [10] was greater than 100 µM in each case.

Consider `COc1cc2c(cc1O)CC[C@@H]1C2CC[C@@]2(C)C1CC[C@@H]2O` (stereo not given in full), for which the TGI in experiment [1] was 61.8 µM; in experiment [2] it was greater than 100 µM; in experiment [3] it was greater than 100 µM; in [4], greater than 100 µM; in experiment [5], greater than 100 µM; in experiment [6], greater than 72.7 µM. In addition, the TGI in [7] was 22.3 µM; in experiment [8] it was 6.87 µM; in experiment [9] it was 2.73 µM; in [10] it was greater than 100 µM.

Turning to `CCOC(=O)c1cc(-c2ccn(C(C)=O)c2)c(-c2cc(C)co2)[nH]1`, the TGI in [1], in experiment [2], in [3], in [4], in experiment [5] and in experiment [6] was greater than 100 µM in each case. Further, the TGI in experiment [7], in experiment [8], in experiment [9] and in experiment [10] was greater than 100 µM each time.

Consider `Cn1c(=O)c2sc3cc4c(cc3c2c2ccccc21)sc1c(=O)n(C)c2ccccc2c14`, for which the TGI in experiment [1], in experiment [2], in experiment [3], in [4], in experiment [5] and in [6] was greater than 100 µM throughout. Further, the TGI in [7], in experiment [8], in experiment [9] and in [10] was greater than 100 µM each time.

On to `CCOC(=O)CCC(C(=O)OCC)n1nnc2cc(Nc3c(C)[n+]([O-])c4ccc(Cl)cc4[n+]3[O-])ccc21` (stereo not given), for which the TGI in experiment [1], in experiment [2], in [3], in experiment [4], in experiment [5] and in experiment [6] was greater than 100 µM in each case. The TGI in [7], in experiment [8], in [9] and in [10] was greater than 100 µM each time.

For the compound `CCCC(=O)OC1CC(n2cc(F)c(=O)[nH]c2=O)OC1CO` (stereo not given), the TGI was greater than 10 µM in experiment [1]; greater than 10 µM in experiment [2]; greater than 10 µM in experiment [3]; greater than 5.96 µM in [4]; greater than 10 µM in experiment [5]; greater than 10 µM in experiment [6]. Moreover, the TGI in [7], in experiment [8], in experiment [9] and in [10] was greater than 10 µM each time.

Regarding `O=c1oc2ccccc2c(O)c1Cc1cccc(Cc2c(O)c3ccccc3oc2=O)c1`, the TGI in [1], in experiment [2], in experiment [3], in experiment [4], in [5] and in experiment [6] was greater than 100 µM each time. Moreover, the TGI in experiment [7], in experiment [8], in experiment [9] and in experiment [10] was greater than 100 µM throughout.

Take `N#Cc1c(-c2ccc(Cl)cc2)cc(-c2nc3ccccc3[nH]2)nc1N`: the TGI in experiment [1] was 25.1 µM; in [2] it was 21.2 µM; in experiment [3], 28 µM; in experiment [4] it was 16.2 µM; in experiment [5] it was 25.9 µM; in experiment [6], 21.6 µM. The TGI in experiment [7] was 45.3 µM; in experiment [8] it was 35.1 µM; in experiment [9], 48.4 µM; in experiment [10], 36.2 µM.

In the case of `COc1ccc(NC(=S)NNC(=O)c2cc(-c3ccccc3)nc3ccccc23)cc1`, the TGI in experiment [1] was greater than 100 µM; in experiment [2] it was 30.6 µM; in experiment [3], 42.8 µM; in [4], 31.9 µM; in [5] it was 38.9 µM; in experiment [6] it was 35.9 µM. The TGI in [7] worked out at 34.8 µM; in [8] it was 50.7 µM; in experiment [9], 35.5 µM; in experiment [10], 65.1 µM.

Consider `Cc1ccc(S(=O)(=O)N2CCN(CCO)CCN(S(=O)(=O)c3ccc(C)cc3)CCN(CCO)CC2)cc1`, for which the TGI in experiment [1] is 38.6 µM; in experiment [2], 37.7 µM; in experiment [3], greater than 100 µM; in experiment [4] it was 31.5 µM; in experiment [5], 35.2 µM; in [6] it was 28.7 µM. The TGI in [7] worked out at 54 µM; in experiment [8], 33.2 µM; in experiment [9] it was 38.3 µM; in experiment [10], 37.6 µM.

As to `Cc1cc(C)c2c(c1)CC1(Cc3c(C)cc(C)cc3C1=O)C2=O` (stereo not given), the TGI in experiment [1], in experiment [2], in [3], in [4], in experiment [5] and in experiment [6] was greater than 100 µM in each case. In addition, the TGI in experiment [7], in experiment [8], in experiment [9] and in experiment [10] was greater than 100 µM in each case.

On to `COC(=O)C1=C(C)NC2(C)OC(C)(O)C(C(C)=O)C12C(C)=O` (stereo not given), for which the TGI in [1] was greater than 100 µM; in experiment [2], greater than 100 µM; in experiment [3] it was 53.1 µM; in experiment [4] it was greater than 100 µM; in experiment [5], 54.6 µM; in experiment [6], greater than 100 µM. Besides, the TGI in experiment [7], in experiment [8], in experiment [9] and in experiment [10] was greater than 100 µM in each case.

Regarding `COc1ccc(C2NC(=O)Nc3c2c(=O)oc2c3ccc3ccccc32)cc1` (stereo not given), the TGI is greater than 100 µM in [1]; greater than 100 µM in experiment [2]; 96.9 µM in experiment [3]; greater than 100 µM in experiment [4]; 82.8 µM in experiment [5]; greater than 100 µM in experiment [6]. Further, the TGI in experiment [7], in [8], in experiment [9] and in [10] was greater than 100 µM throughout.

For `CCCCCCCCC[n+]1cccc(C2C(C(=O)OCC)=C(C)NC(C)=C2C(=O)OCC)c1`, the TGI in experiment [1] is 4.21 µM; in experiment [2], 3.54 µM; in experiment [3], 28.7 µM; in experiment [4] it was 7.32 µM; in experiment [5], 3.29 µM; in experiment [6], 19.3 µM. Also, the TGI in experiment [7] is 6.85 µM; in [8] it was 9.8 µM; in [9] it was greater than 100 µM; in experiment [10], 21.1 µM.

As for `C=C1C(=O)O[C@H]2[C@H]([C@H](C)CCCC(C)=O)O[C@H]([C@@]3(C)CCC(=O)O3)C[C@@H]12`, the TGI in [1] is greater than 100 µM; in [2], greater than 100 µM; in experiment [3], 80.5 µM; in [4] it was greater than 100 µM; in experiment [5], greater than 100 µM; in experiment [6], greater than 100 µM. The TGI in experiment [7] is 83.5 µM; in [8], 64.8 µM; in [9] it was greater than 100 µM; in experiment [10] it was greater than 100 µM.

For the compound `COC(=O)/C=C\C(C#N)(C#N)N=Cc1ccsc1`, the TGI is 28.9 µM in experiment [1]; 9.69 µM in experiment [2]; 45.3 µM in experiment [3]; 8.23 µM in experiment [4]; 30.7 µM in experiment [5]; 33.6 µM in [6]. The TGI in [7] is 0.93 µM; in experiment [8] it was 1.99 µM; in [9] it was greater than 19.7 µM; in [10], 32.5 µM.

For the compound `O=C(NC/C=C/Br)NC1CCNc2ccccc21` (stereo not given), the TGI was greater than 100 µM in experiment [1]; 58.7 µM in experiment [2]; greater than 100 µM in [3]; 34.5 µM in experiment [4]; 86.8 µM in [5]; greater than 100 µM in experiment [6]. For the same compound, the TGI in experiment [7] is greater than 100 µM; in [8] it was greater than 100 µM; in [9] it was 99.7 µM; in [10], greater than 100 µM.

As to `O=c1/c(=C/c2ccc(-c3ccc(Cl)cc3Cl)o2)sc2n1[C@@H](c1ccc3c(c1)OCO3)C=C(c1cc(F)c(Cl)cc1Cl)N=2`, the TGI in experiment [1] is greater than 100 µM; in experiment [2] it was greater than 100 µM; in experiment [3], greater than 100 µM; in [4], greater than 100 µM; in [5] it was 71.1 µM; in experiment [6], greater than 100 µM. For the same compound, the TGI in experiment [7], in [8], in experiment [9] and in [10] was greater than 100 µM in each case.

With `COC1=CC(=O)c2c(cc(COP(=O)(N(C)CCBr)N(C)CCBr)n2C)C1=O`, the TGI in experiment [1] was found to be 24.1 µM; in experiment [2] it was 2.26 µM; in experiment [3], 1.43 µM; in [4], 2.56 µM; in experiment [5], 4.87 µM; in experiment [6], 9.44 µM. For the same compound, the TGI in experiment [7] was 19 µM; in [8], 2.15 µM; in [9], 16.7 µM; in experiment [10], 20.4 µM.
